Legend:
Assay in all cases: relative viability (nuclei count vs DMSO), 5 days (fraction); higher = more cells survive
Bemcentinib + AZD7762 = compound: Nc1nc(Nc2ccc3c(c2)CC[C@@H](N2CCCC2)CC3)nn1-c1cc2c(nn1)-c1ccccc1CCC2 [Bemcentinib] + NC(=O)Nc1cc(-c2cccc(F)c2)sc1C(=O)N[C@H]1CCCNC1 [AZD7762] (partner 0.2 µM)
Summary of the method: (§1)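 Dosing by pin tool came one day after lung cancer cell lines were seeded in 1536-well plates, using either one drug or a fixed anchor-drug dose plus five library-drug doses (not always all listed) in √10 steps. After 5 days, nuclei were counted on 4× images. Relative viability is treated-well nuclei count divided by vehicle-well nuclei count, and values are medians of duplicate plates.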

Bemcentinib + Pemetrexed = compound: Nc1nc(Nc2ccc3c(c2)CC[C@@H](N2CCCC2)CC3)nn1-c1cc2c(nn1)-c1ccccc1CCC2 [Bemcentinib] + Nc1nc2[nH]cc(CCc3ccc(C(=O)N[C@@H](CCC(=O)O)C(=O)O)cc3)c2c(=O)[nH]1 [Pemetrexed] (partner 0.2 µM)
Summary of the method: as §1

Axitinib + Linsitinib = compound: CNC(=O)c1ccccc1Sc1ccc2c(/C=C/c3ccccn3)n[nH]c2c1 [Axitinib] + C[C@]1(O)C[C@@H](c2nc(-c3ccc4ccc(-c5ccccc5)nc4c3)c3c(N)nccn32)C1 [Linsitinib] (partner 1 µM)
Summary of the method: as §1

Bemcentinib + OSI-027 = compound: Nc1nc(Nc2ccc3c(c2)CC[C@@H](N2CCCC2)CC3)nn1-c1cc2c(nn1)-c1ccccc1CCC2 [Bemcentinib] + COc1cccc2cc(-c3nc([C@H]4CC[C@H](C(=O)O)CC4)n4ncnc(N)c34)[nH]c12 [OSI-027] (partner 0.5 µM)
Summary of the method: as §1

Cell Line	relative viability (Bemcentinib + AZD7762; first compound 0.04 µM)	relative viability (Bemcentinib + AZD7762; first compound 0.1265 µM)	relative viability (Bemcentinib + AZD7762; first compound 0.4 µM)	relative viability (Bemcentinib + AZD7762; first compound 1.265 µM)	relative viability (Bemcentinib + AZD7762; first compound 4 µM)	relative viability (Bemcentinib + Pemetrexed; first compound 0.04 µM)	relative viability (Bemcentinib + Pemetrexed; first compound 0.1265 µM)	relative viability (Bemcentinib + Pemetrexed; first compound 0.4 µM)	relative viability (Bemcentinib + Pemetrexed; first compound 1.265 µM)	relative viability (Bemcentinib + Pemetrexed; first compound 4 µM)	relative viability (Axitinib + Linsitinib; first compound 0.005 µM)	relative viability (Axitinib + Linsitinib; first compound 0.01581 µM)	relative viability (Axitinib + Linsitinib; first compound 0.05 µM)	relative viability (Axitinib + Linsitinib; first compound 0.1581 µM)	relative viability (Axitinib + Linsitinib; first compound 0.5 µM)	relative viability (Bemcentinib + OSI-027; first compound 0.04 µM)	relative viability (Bemcentinib + OSI-027; first compound 0.1265 µM)	relative viability (Bemcentinib + OSI-027; first compound 0.4 µM)	relative viability (Bemcentinib + OSI-027; first compound 1.265 µM)	relative viability (Bemcentinib + OSI-027; first compound 4 µM)
NCI-H2085	0.956	1.03	0.863	0.767	0.748	0.857	0.945	0.861	0.876	0.714	1.02	1	0.845	0.794	1	0.722	0.945	0.764	0.686	0.752
NCI-H1395		0.404	0.425	0.406	0.366		1.03	0.903	0.797	0.82	1.2	0.913	1.37	0.97	1.18	0.654	0.74	0.616	0.613	0.594
NCI-H2405	0.744	0.875	0.887	0.819	0.605	1.01	1.12	1.14	1.11	1.19	0.945	1	1.07	1	1.11	0.665	0.64	0.62	0.707	0.692
EMC-BAC-2	1.14	1.11	1.14	1.02	1.06	0.442	0.475	0.48	0.416	0.419	0.874	0.781	0.813	0.782	0.837	0.372	0.369	0.427	0.37	0.388
LCLC-103H	0.764	0.818	0.851	0.81	0.852	0.422	0.478	0.428	0.455	0.434	1.27	1.08	1.05	1.05	1.03	0.479	0.5	0.452	0.422	0.448
BEN	0.554	0.637	0.638	0.674	0.634	0.62	0.895	0.782	0.678	0.592	1.04	1.01	0.689	0.803	0.928	0.292	0.288	0.296	0.345	0.322
NCI-H1755	0.47	0.704	0.439	0.434	0.469	0.418	0.498	0.565	0.569	0.455	1.04	0.963	0.99	1.02	1.03	0.79	0.711	0.758	0.793	0.732
LU99A	0.377	0.375	0.394	0.344	0.35	0.139	0.321	0.241	0.154	0.16	0.611	0.561	0.5	0.483	0.553	0.283	0.279	0.28	0.285	0.275
NCI-H1793	0.617	0.498	0.407	0.19	0.23	0.853	1.05	0.933	0.853	0.813	0.85	0.836	0.935	1.01	0.881	0.265	0.305	0.299		0.282
NCI-H460	0.678	0.694	0.668	0.581	0.407	0.0651	0.0562	0.0565	0.0602	0.0631	0.94	0.875	0.861	0.716	0.854	0.73	1.2	0.827	0.686	0.851
HARA	0.326	0.26	0.345	0.185	0.258	0.236	0.243	0.241	0.245	0.196	1.06	0.972	1.09	0.914	1.05	0.479	0.758	0.589	0.453	0.469

Source: the supplement of paper PMC10307832
